From ChEMBL document CHEMBL1148751, “Optimization of the indenone ring of indenoisoquinoline topoisomerase I inhibitors” (2007)

How the values were obtained:
Assay type in all cases: functional
HOP-62 = assay: Cytotoxicity against human HOP62 cells
HCT-116 = assay: Cytotoxicity against human HCT116 cells
SF-539 = assay: Cytotoxicity against human SF539 cells
UACC-62 = assay: Cytotoxicity against human UACC62 cells
OVCAR-3 = assay: Cytotoxicity against human OVCAR-3 cells
SN12C = assay: Cytotoxicity against human SN12C cells
DU-145 = assay: Cytotoxicity against human DU145 cells
MDA-MB-435 = assay: Cytotoxicity against human MDA-MB-435 cells

Compound	GI50 (HOP-62)	GI50 (HCT-116)	GI50 (SF-539)	GI50 (UACC-62)	GI50 (OVCAR-3)	GI50 (SN12C)	GI50 (DU-145)	GI50 (MDA-MB-435)
COc1ccc2c(c1)C(=O)c1c-2n(CCCCl)c(=O)c2cc([N+](=O)[O-])ccc12	0.295 µM	0.794 µM	0.027 µM	< 0.01 µM	3.39 µM	< 0.01 µM	0.036 µM	3.24 µM
Cc1ccc2c(c1)C(=O)c1c-2n(CCCBr)c(=O)c2cc([N+](=O)[O-])ccc12	24.5 µM	18.6 µM	> 100 µM	26.3 µM	70.8 µM	46.8 µM	50.1 µM	> 100 µM
N#Cc1ccc2c(c1)C(=O)c1c-2n(CCCCl)c(=O)c2cc([N+](=O)[O-])ccc12	2.57 µM	1.82 µM	2.63 µM	1.12 µM	8.71 µM	5.89 µM	2.75 µM	> 100 µM
Cc1ccc(S(=O)(=O)Oc2ccc3c(c2)C(=O)c2c-3n(CCCBr)c(=O)c3cc([N+](=O)[O-])ccc23)cc1	7.59 µM	> 100 µM	50.1 µM	23.4 µM	81.3 µM	> 100 µM	58.9 µM	> 100 µM
CS(=O)(=O)c1ccc2c(c1)C(=O)c1c-2n(CCCBr)c(=O)c2cc([N+](=O)[O-])ccc12	8.13 µM	7.41 µM	24 µM	4.27 µM	28.8 µM	6.92 µM	6.31 µM	83.2 µM
COC(=O)c1ccc2c(c1)C(=O)c1c-2n(CCCCl)c(=O)c2cc([N+](=O)[O-])ccc12	43.7 µM	41.7 µM	83.2 µM	27.5 µM	95.5 µM	> 100 µM	37.2 µM	> 100 µM
CCOc1ccc2c(c1)C(=O)c1c-2n(CCCBr)c(=O)c2cc([N+](=O)[O-])ccc12	5.75 µM	6.03 µM	5.62 µM	5.75 µM	23.4 µM	11.7 µM	4.27 µM	30.9 µM
CCc1ccc2c(c1)C(=O)c1c-2n(CCCBr)c(=O)c2cc([N+](=O)[O-])ccc12	21.4 µM	> 50.1 µM	28.2 µM	32.4 µM	> 50.1 µM	> 50.1 µM	> 50.1 µM	> 50.1 µM
COC(=O)OCc1ccc2c(c1)C(=O)c1c-2n(CCCBr)c(=O)c2cc([N+](=O)[O-])ccc12	27.5 µM	81.3 µM	56.2 µM	33.9 µM	> 100 µM	> 100 µM	> 100 µM	> 100 µM
O=C1c2cc(-c3ccccc3)ccc2-c2c1c1ccc([N+](=O)[O-])cc1c(=O)n2CCCBr	18.2 µM	> 50.1 µM	16.6 µM	49 µM	> 50.1 µM	> 50.1 µM	> 50.1 µM	> 50.1 µM
O=C1c2cc(Cl)ccc2-c2c1c1ccc([N+](=O)[O-])cc1c(=O)n2CCCBr	2.45 µM	3.47 µM	3.72 µM	3.47 µM	36.3 µM	2.51 µM	3.98 µM	14.8 µM
CSc1ccc2c(c1)C(=O)c1c-2n(CCCBr)c(=O)c2cc([N+](=O)[O-])ccc12	1.05 µM	2.24 µM	4.57 µM	3.09 µM	> 100 µM	0.891 µM	3.89 µM	30.9 µM
